US20170079281A1, “CITRUS-BASED ANTIMICROBIAL COMPOSITION” (priority 2015, published 2017)

Columns and labels:
Escherichia coli EDL 933 = test: MIC by broth dilution method in 96-well microplates; assay type: cell-based; settings: Mueller Hinton Broth, 24 h
[1] = test system: Salmonella typhimurium SL1344; test: as above; assay type: cell-based; settings: Mueller Hinton Broth, 24 h
[2] = test system: Listeria monocytogenes HPB 2812; test: as above; assay type: cell-based; settings: Mueller Hinton Broth, 24 h
[3] = test system: Staphylococcus aureus ATCC 25923; test: as above; assay type: cell-based; settings: Mueller Hinton Broth, 24 h
Bacillus cereus L8PQ = test: as above; assay type: cell-based; settings: Mueller Hinton Broth, 24 h
[4] = test system: Aspergillus niger ATCC 1015; test: as above; assay type: cell-based; settings: Mueller Hinton Broth, 24 h
[5] = test system: Xeromyces bisporus ATCC MY-36964; test: as above; assay type: cell-based; settings: Mueller Hinton Broth, 24 h
[6] = test system: Zygosaccharomyces rouxii ATCC R 995; test: as above; assay type: cell-based; settings: Mueller Hinton Broth, 24 h
[7] = test system: total aerobic microflora (TAM); test: Accelerated shelf-life testing of strawberry fillings and puddings; assay type: cell-based; settings: 0.2% by mass Composition A or 0.1% by mass sodium benzoate; 28° C., 70% RH, 35 days (Month 1 to Month 15)
Method: (§1) The shelf-life of the strawberry fillings and strawberry flavor puddings, containing 0.2% by mass Composition A or 0.1% by mass sodium benzoate, […], from a procedure by Kilcast and Persis (2000) by determining the concentration of total aerobic microflora (TAM) and yeast/molds (YM). […]; Sheldon Manufacturing Inc., Cornelius, Oreg., USA), in order to simulate an accelerated maturity of the products. A storage time of 2 weeks in these conditions corresponds to 6 months in normal conditions (20° C., 45% RH). […] Samples were homogenized for 2 min at 260 rpm in 50 mL of sterile peptone water (0.1% w/v) with a Lab-Blender™ 400 stomacher (Laboratory Equipment, London, UK). From each homogenate, serial dilutions were prepared, plated onto surface of Plate Count Agar (PCA) (Difco, BD) for TAM enumeration or PDA for YM enumeration and incubated for 24-48 h at 37° C. (resp. 28° C.) before counting.

yeast/molds (YM) = test: as above; assay type: cell-based
Method: as §1

S. cerevisiae ISI107 = test: MIC microtiter plate assay in filtered apple juice; assay type: cell-based, Saccharomyces cerevisiae; settings: filtered apple juice (pH 3.59), 25° C., aerobically
[8] = has been reported; cited from earlier work

Structure (SMILES) | MIC (Escherichia coli EDL 933) | MIC [1] | MIC [2] | MIC [3] | MIC (Bacillus cereus L8PQ) | MIC [4] [ppm] | MIC [5] [ppm] | MIC [6] [ppm] | TAM concentration in strawberry fillings [7] | Yeast/Mold (Y/M) concentration in strawberry flavor puddings (yeast/molds (YM); 0.2% Composition A or 0.1% sodium benzoate, after 35 days accelerated storage, also no growth in control, data not shown) | Yeast/Mold (Y/M) concentration in strawberry fillings (yeast/molds (YM); 0.2% by mass Composition A or 0.1% by mass sodium benzoate, 28° C., 70% RH, 35 days (Month 1 to Month 15)) | MIC (S. cerevisiae ISI107) | Resistance to thermal processing [8]
O=C([O-])c1ccccc1.[Na+] [Sodium benzoate, sodium benzoate] | 10 730 ppm | 5 185 ppm | 5 185 ppm | 5 185 ppm | 5 185 ppm | 648 | 81 | 162 | total inhibition | no growth | total inhibition | – | –
CCCCCCCCCCCC(=O)N[C@@H](CCCN=C(N)N)C(=O)OCC [lauric arginate, ethyl lauroyl arginate] | – | – | – | – | – | – | – | – | – | – | – | about 156 ppm | resistant to all types of thermal processing including boiling
